Assay results from patent publication US11576873B2, “Compositions for the treatment of drug-resistant tumors and methods of use thereof” (THE CURATORS OF THE UNIVERSITY OF MISSOURI, priority 2017, dated 2023).

Assays:
Experiment in all cases: 72 h toxicity of erlotinib, cell viability / IC50 analysis
Type in all cases: cell-based
H820 cells = details: Homo sapiens, NCI-H820, H820 (del E746-E749 and T790M)
Description: (§1) FIG. 42A,B. FIG. 42A and 42B show 72 h toxicity of erlotinib in various NSCLC cells lines: (A) Cell viability plot and (B) IC50 analysis. Results were averaged from 3 independent experiments.
(§2) (A, C, E) Represent the cell viability plot and (B, D, F) represent the associated IC50 analysis.
(§3) The IC50 of erlotinib was investigated in multiple cell lines based on their AXL and FN14 expressions and EGFR/KRAS mutant status (FIG. 42). […] The independent and combined effects of AXL and FN14 siRNAs were also examined. siRNA and siRNA based constructs for treatment and studied variation in IC50 of erlotinib in multiples drug resistant cell lines were used.

HCC827 = HCC827 carrying E746-A750 deletion
Description: as §1, §3

H1975 = details: Homo sapiens, NCI-H1975; T790M mutant H1975, 72 h
Description: as §1, §3

A549 = test system: A549
Description: as §1, §2, §3
Rho, et al., Cancer Res 2014; 74: 253-262. […] Srikar, et al., Sci Rep 2016; 6: 30245.

`C#Cc1cccc(Nc2ncnc3cc(OCCOC)c(OCCOC)cc23)c1` [erlotinib] was tested, and the IC50 (H820 cells) was > 10 µM, the sensitivity to erlotinib (HCC827) was “highly sensitive” and the IC50 (H1975) was > 10 µM. For the same compound, the “resensitization towards the drug” value (A549; A549, downregulating all three pathways (AXL, FN14, KRAS)) was “total resensitization” and the IC50 (A549; Homo sapiens, A549, 72 h, read-out: IC50 of erlotinib) was > 10 µM.
